Molecules are shown by their SMILES. Where two headings read alike, the source gives them in different places.

The values below come from publication PMC3683333, “^11C-LY2428703, a positron emission tomographic radioligand for the metabotropic glutamate receptor 1, is unsuitable for imaging in monkey and human brains” (EJNMMI Research, 2013).

The nature of data set [1]: Brain exposure comparison of five radioligands. The data set is classed as in vivo, human. As to the method:
Another complicating factor is low delivery to brain (i.e., low drug exposure), which may have cause low brain uptake. We compared five different radioligands from previous studies with regard to exposure to brain (Table 3) and measured the area under the curve of plasma concentration vs. time from 0 to 20 min. […] The effective exposure was thus named because only the free concentration of drug can cross the blood–brain barrier. ^11C-LY2428703 had the highest exposure value among the tracers tested. This high exposure was due to the slow wash-out of the tracer from the vascular compartment and to negligible metabolism in plasma, that is, parent radioligand represented 99% of plasma radioactivity even at the end of the 2-h scanning session.

On the set-up of data set [2]: method as in earlier work. The settings on record: cited from earlier work; for Exposure SUV (0 to 20): AUC of plasma concentration vs. time, 0 to 20 min, data of previous studies; for fp: human plasma; for Brain peak SUV: human.
The conditions of data set [3]: cited from earlier work.
The subject of data set [4] is ABCB1 (permeability glycoprotein (P-gp)) and ABCG2 (breast cancer resistance protein (BCRP)). On the set-up: method as in PMID 23135321. The settings on record: genetic knockout mice for ABCB1 and ABCG2; cited from earlier work.
The subject of the next data set is other human mGluRs. Further details: method as in PMID 23135321. The settings on record: cited from earlier work.
The target of another data set is human mGluR1s. Further details: method as in PMID 23135321. The settings on record: cited from earlier work.
For data set [5], the system named is mGluR1. Further details: method as in PMID 23135321. The settings on record: PET; cited from earlier work.
Data set [6] deals with mGluR1. On the set-up: method as in PMID 23135321. The settings on record: rats; read-out: in vitro affinity; cited from earlier work.
Where [7] appears, read: fp × AUC0 to 20, comparators from data of refs 22, 19, 23, 24.

As for `N#Cc1cc(F)cc(C#Cc2csc(C[18F])n2)c1` [^18F-SP203], the “Effective exposure (E × fp)” value in data set [1] (in vivo) was determined as 1.9. In addition, in data set [2], the “Exposure SUV (0 to 20)” value is given as 37.0 SUV, the fp is 5.2% and the “Brain peak SUV” value is recorded as about 6 SUV.
As for `CC(C)Nc1cc(-c2csc(N(C)C(=O)c3ccc([18F])cc3)n2)ncn1` [^18F-FITM, reference compound], the log distribution coefficient (LogD) in data set [3] is recorded as 1.5.
As for `COc1ccc(-c2nsc(NC(=O)[C@@H]3C[C@H]3C)c2C)cc1` [LY2428703], in data set [4], the “substrate for efflux transporters at the blood–brain barrier” value was “not a substrate”. Further, in the data set on other human mGluRs, the “affinity for other human mGluRs” value is on record as “no significant affinity”. Also, the Ki was 1.4 ± 0.4 nM at human mGluR1s (females, read-out: Ki) and 2.7 ± 0.5 nM on human mGluR1s (males, read-out: Ki). The “signal in rat cerebellum” value with mGluR1 [5] was “large specific and displaceable signal”.
Turning to `C[C@@H](N[C@@H]1C[C@H](c2cccc(OC[18F])c2)N(c2ccc(C(F)(F)F)cc2)C1=O)c1ccccc1` [^18F-FMPEP], the “Effective exposure (E × fp)” value in data set [1] (setting [7]) was found to be 0.30. Also, in data set [2], the “Exposure SUV (0 to 20)” value is 47.8 SUV, the fp was 0.63% and the “Brain peak SUV” value was 3 to 4 SUV.
In the case of `COc1ccc(-c2nsc(NC(=O)[C@@H]3C[C@H]3C)c2C)cc1` [^11C-LY2428703], the Ki on mGluR1 [6] is 0.6 nM; on human mGluR1s (humans, read-out: in vitro affinity), about 2 nM.
On to `[11CH3]NC(=O)[C@@H](Cc1ccccc1F)CN1CCC2(CC1)OCCc1cc(F)sc12` [^11C-NOP1A], for which the “Effective exposure (E × fp)” value in data set [1] (setting [7]) was 3.7. Moreover, in data set [2], the “Exposure SUV (0 to 20)” value is listed as 36.7 SUV, the fp is given as 10.1% and the “Brain peak SUV” value was 5 to 7 SUV.
Consider `[11CH3]Oc1ccc([C@@H]2CNC(=O)C2)cc1OC1CCCC1` [^11C-( R )-rolipram], for which the “Effective exposure (E × fp)” value in data set [1] (in vivo) worked out at 8.0. In addition, in data set [2], the “Exposure SUV (0 to 20)” value is given as 124.9 SUV, the fp is recorded as 6.4% and the “Brain peak SUV” value was 2 to 2.5 SUV.

As usually defined, the LogD is lipophilicity at a set pH, counting ionised and neutral species.
